# Target: T1, human histamine H3 receptor (Homo sapiens, UniProt Q9Y5N1)
# T1 construct: One microgram supercoiled H3 receptor cDNA was added to the cells and mixed; expressed in transfected cells; membranes prepared from cell pellets
# Assay: [3H]-N-methylhistamine binding
# Conditions: membranes of histamine H3 receptor-expressing SK-N-MC cells; 0.8 nM [3H]-N-methylhistamine; 45 minutes at 25° C.; Ki calculated with KD of 800 pM
# Experimental: Screening using the human receptor is particularly important for the identification of new therapies for the treatment of human disease.
# A 10 cm tissue culture dish with a confluent monolayer of SK-N-MC cells was split two days prior to transfection. Using sterile technique the media was removed and the cells were detached from the dish by the addition of trypsin. One fifth of the cells were then placed onto a new 10 cm dish. Cells were grown in a 37° C. incubator with 5% CO2 in Minimal Essential Media Eagle with 10% Fetal Bovine Serum. After two days cells were approximately 80% confluent. These were removed from the dish with trypsin and pelleted in a clinical centrifuge. […] One microgram supercoiled H3 receptor cDNA was added to the cells and mixed. The voltage for the electroporation was set at 0.25 kV, the capacitance is set at 960 μF.
# After electroporation the cells were diluted into 10 mL complete media and plated onto four 10 cm dishes. Due to the variability in the efficiency of electroporation, four different concentrations of cells were plated. The ratios used were: 1:20, 1:10, and 1:5, with the remainder of the cells being added to the fourth dish. The cells were allowed to recover for 24 hours before adding the selection media (complete media with 600 μg/ml G418). After 10 days dishes were analyzed for surviving colonies of cells. Dishes with well-isolated colonies were used. Cells from individual colonies were isolated and tested. SK-N-MC cells were used because they give efficient coupling for inhibition of adenylate cyclase. The clones that gave the most robust inhibition of adenylate cyclase in response to histamine were used for further study.
# Cell pellets from histamine H3 receptor-expressing SK-N-MC cells were homogenized in 20 mM Tris HCl/0.5 mM EDTA. Supernatants from a 800 g spin were collected, reccentrifuged at 30,000 g for 30 minutes. Pellets were rehomogenized in 50 mM Tris/5 mM EDTA (pH 7.4). Membranes were incubated with 0.8 nM [^3H]-N-methylhistamine plus/minus test compounds for 45 minutes at 25° C. and harvested by rapid filtration over GF/C glass fiber filters (pretreated with 0.3% polyethylenimine) followed by four washes with ice cold buffer. Filters were dried, added to 4 mL scintillation cocktail and then counted on a liquid scintillation counter.
# T1 sequence (Q9Y5N1 whole entry): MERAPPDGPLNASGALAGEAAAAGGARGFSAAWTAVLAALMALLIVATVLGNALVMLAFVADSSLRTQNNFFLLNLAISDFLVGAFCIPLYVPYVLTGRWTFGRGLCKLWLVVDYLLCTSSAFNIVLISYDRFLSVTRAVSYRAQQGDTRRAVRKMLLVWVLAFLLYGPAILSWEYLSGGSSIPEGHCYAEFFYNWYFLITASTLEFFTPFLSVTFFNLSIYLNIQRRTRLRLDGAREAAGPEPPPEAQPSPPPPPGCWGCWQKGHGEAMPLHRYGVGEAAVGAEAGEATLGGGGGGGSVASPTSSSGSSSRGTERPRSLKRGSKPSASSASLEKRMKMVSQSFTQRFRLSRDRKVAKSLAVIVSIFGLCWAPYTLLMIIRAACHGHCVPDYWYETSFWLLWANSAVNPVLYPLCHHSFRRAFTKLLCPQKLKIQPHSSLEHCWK
row,SMILES,Ki [nM]
1,"Cc1ccn2cc(-c3ccc(CCCCN4CCCC4)cc3)nc2c1 [Example 37, 2-[4-[4-Pyrrolidinobutyl]phenyl]-7-methylimidazo[1,2-a]pyridine]",10
2,"Cc1ccn2cc(-c3ccc(CCCCN4CCCCC4)cc3)nc2c1 [Example 38, 7-Methyl-2-[4-(4-piperdin-1-yl-butyl)-phenyl]imidazo[1,2-a]pyridine]",29
3,"CCCN(CCC)CC(C)COc1ccc(-c2cn3cccc(C)c3n2)cc1 (centres unmarked) [Example 5, {2-Methyl-3-[4-(8-methyl-imidazo[1,2-a]pyridin-2-yl)-phenoxy]-propyl}-dipropyl-amine]",50
4,"CCCCN(CCCC)CC(O)COc1ccc(-c2cn3cccc(C)c3n2)cc1 (centres unmarked) [Example 48, 2-(4-Dibutylamino(2-hydroxy)propoxyphenyl)-8-methylimidazo[1,2-a]pyridine]",1000
5,"Cc1cccn2cc(-c3ccc(OCC(O)CNC(C)(C)C)cc3)nc12 (centres unmarked) [Example 49, 2-(4-(2-hydroxy-3-(1,1-Dimethylethyl)aminopropoxy)phenyl)-8-methylimidazo[1,2-a]pyridine]",1000
6,Cc1ccn2cc(-c3ccc(C#CCCN4CCCCCC4)cc3)nc2c1 [Example 35],50
7,"Cc1cccn2cc(-c3ccc(NCCN4CCCCC4)cc3)nc12 [Example 31, [4-(8-Methyl-imidazo[1,2-a]pyridin-2-yl)-phenyl]-(2-piperidin-1-yl-ethyl)-amine]",8
8,"CCN(CC)CCNC(=O)c1ccc(-c2cn3cccc(C)c3n2)cc1 [Example 1, N-(2-Diethylamino-ethyl)-4-(8-methyl-imidazo[1,2-a]pyridin-2-yl)-benzamide]",90
9,"Cc1cccn2cc(-c3ccc(C(=O)OCCN(C)C)cc3)nc12 [Example 2, 4-(8-Methyl-imidazo[1,2-a]pyridin-2-yl)-benzoic acid 2-dimethylamino-ethyl ester]",89
10,"Cc1ccn2cc(-c3ccc(OCCCNCc4ccc(F)cc4)cc3)nc2c1 [Example 25, 2-(4-(4-Fluorobenzyl)aminopropoxyphenyl)-7-methylimidazo[1,2-a]pyridine]",1500
11,"Cc1cccn2cc(-c3ccc(OCCCN4CCOCC4)cc3)nc12 [Example 55, 2-(4-Morpholinopropoxyphenyl)-8-methylimidazo[1,2-a]pyridine]",25
12,Cc1ccn2cc(-c3ccc(OCCCN4CCCCCC4)cc3)nc2c1 [Example 19],2
13,"CCN(CC)CCCNc1ccc(-c2cn3ccc(C)cc3n2)cc1 [Example 30, N,N-Diethyl-N′-[4-(7-methyl-imidazo[1,2-a]pyridin-2-yl)-phenyl]-propane-1,3-diamine]",3
14,"Cc1ccn2cc(-c3ccc(CCCCN4CCCCCC4)cc3)nc2c1 [Example 39, 2-[4-(4-Azepan-1-yl-butyl)-phenyl]-7-methyl-imidazo[1,2-a]pyridine]",57

# Reference: patent US7087757B2, “Phenyl-substituted imidazopyridines” (Ortho-McNeil Pharmaceutical, Inc., priority 2000, dated 2006)
